The test system of data set [1] is MDA-MB-231 (Breast cancer). The data set is described as follows: PrestoBlue cell viability, MDA-MB-231. The following applies: Homo sapiens, MDA-MB-231, 72 h. It is filed as cell-based. The method, then: (§1) The cells were screened for chemosensitivity to these compounds for 72 h with increasing concentrations of the compounds ranging from 0 to 100 μM in 96-well plates. Trifluoperazine was used as the reference compound. Each experiment was performed in triplicate and repeated at least three times. Cell viability was estimated after addition of the PrestoBlue cell viability reagent (Life Technologies) for 3 h.
(§2) The effect of compound C was also evaluated by treating cellular lines derived from different tumors with increasing concentrations of this compound. The protocol applied is the same as the one mentioned above for cell lines 02-063, HN14, LIPC and Foie8b.

Data set [2] deals with HEPG2 (Hepatocellular carcinoma). The data set is described as follows: PrestoBlue cell viability, HEPG2. It is filed as cell-based. On the procedure:
as §1, §2

Data set [3] concerns MiaPaCa-2, ANOR, AOIPC, 02-136, 01-046, NH01, LIPC, HN14, 01-008 and Foie8b cells. The data set is described as follows: Chemosensitivity / PrestoBlue cell viability, ten primary pancreatic cancer-derived cells. Particulars: 72 h, 0 to 100 μM, FIG. 4. It is filed as cell-based. The text has this:
The biological effect in vitro of the compounds C, I, F, K, L, M, N, D, G and J were studied on ten well characterized primary pancreatic cancer-derived cells: MiaPaCa-2 (Classical subtype), ANOR (Classical subtype), AOIPC (Basal subtype), 02-136 (Basal subtype), 01-046 (Classical subtype), NH01 (Classical subtype), LIPC (Basal subtype), HN14 (Classical subtype), 01-008 (Basal subtype) and Foie8b (derived from a liver metastasis).
The protocol applies was identical to the one previously indicated, i.e.:
The cells were screened for chemosensitivity to these compounds for 72 h with increasing concentrations of the compounds ranging from 0 to 100 μM in 96-well plates. Each experiment was performed in triplicate and repeated at least three times. Cell viability was estimated after addition of the PrestoBlue cell viability reagent (Life Technologies) for 3 h.

In data set [4] the test system is 02.063, LIPC, Foie8b and HN14 cells. The data set is described as follows: Chemosensitivity / PrestoBlue cell viability, four primary pancreatic cancer-derived cells. The following applies: 72 h, 0 to 100 μM, FIG. 1. It is filed as cell-based, human. On the procedure: The biological effect in vitro of the compounds A, B and C were then studied on four well characterized primary pancreatic cancer-derived cells 02.063 and LIPC (Basal subtype), Foie8b (derived from a liver metastasis) and HN14 (Classical subtype).
as §1

Data set [5] has as its target T1, NUPR1 (Homo sapiens, UniProt O60356).
T1 sequence (O60356 1-82): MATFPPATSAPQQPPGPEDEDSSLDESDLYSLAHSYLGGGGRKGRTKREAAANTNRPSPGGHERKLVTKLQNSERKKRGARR
The data set is described as follows: Isothermal titration calorimetry of NUPR1-compound interaction. Particulars: ITC, 25° C, sodium phosphate 20 mM pH 7.0, 1% DMSO, single binding site model; read-out: dissociation constant (Kd). On the procedure:
(c) ITC studies: Target engagement for the different compounds was assessed by isothermal titration calorimetry (the gold standard technique in binding affinity determination), which allowed the thermodynamic characterization of the NUPR1-compound interaction.
Titrations were performed in an AutoiTC200 (MicroCal, Malvern Instruments). A solution of NUPR1 (20 μM, in sodium phosphate 20 mM pH 7.0, 1% DMSO) in the calorimetric cell was titrated with a solution of corresponding compound (200 μM, in sodium phosphate 20 mM pH 7.0, 1% DMSO) located in the injecting syringe.
Because compounds were initially dissolved as concentrated (˜10 mM) stock solutions in pure DMSO, a residual percentage of DMSO was present in the final solutions. […] A standard protocol was employed: 19 titrant injections with 2 μL were programmed with a spacing of 150s, a stirring speed of 750 rpm, and a reference power of 10 μcal/s. From the thermogram (thermal power as a function of time), the binding isotherm (ligand-normalized heats as a function of the molar ratio) was obtained through integration of the individual heat effect associated with each ligand injection. Non-linear least squares regression analysis employing a model considering a single binding site in NUPR1 allowed the estimation of the binding parameters: dissociation constant, biding enthalpy, and stoichiometry.

Data set [6] relates to 02.063 cells xenograft. The data set is described as follows: Mice xenografted with 02.063 cells, tumor volume. The data set is classed as in vivo, NMRI-Nude mice. On the procedure: FIG. 2: Variation of the size the tumor of mice xenografted with 02.063 cells in the absence of any treatment (control—administration of a volume of vehicle solution equivalent to the volume of treatment administered to the treated mice) or treated with compound C of the invention (daily treatment of 30 days with 5 mg/kg of this compound). Day 0 on this figure corresponds to the day when the tumors reached 200 mm^3 (so around 1 week after the injection of 15×10^6 cells).
02.063 cells were inoculated subcutaneously (15×10^6 cells) in NMRI-Nude 8-week old mice. When tumors reached 200 mm^3, (around 1 week after the injection), a daily treatment was started for 30 days with 5 mg/kg of the compound C and the control group receiving an equivalent volume of vehicle solution (6 mice in control group, 6 mice treated with compound C).

The nature of data set [7]: Neurological effect on treated mice. The data set is classed as in vivo. On the procedure: Accordingly, Trifluoperazine seemed an interesting compound as anti-cancer agent. However, as indicated in the examples of the present application, increasingly high doses of Trifluoperazine tested in vivo led to neurological effects on immunodeficient mice implanted with human pancreatic cancer cells-derived xenografts.
A similar experiment was performed with Trifluoperazine (data not shown). […] Although relatively efficient as an anticancer agent, the neurological effect found in mice left Trifluoperazine unusable in clinics.

The target in data set [8] is T1, NUPR1. The following applies: Neira et al., 2017; cited from earlier work.
Setting [9] is: 5 mg/kg daily for 30 days, from tumors of 200 mm^3, FIG. 2.

Broadly, the IC50 is the point on the concentration scale where inhibition reaches its midpoint. What is called Kd is the constant that tells how readily two partners part at equilibrium. In data set [1], `CN(C)CCN1CCN(CCCN2c3ccccc3Sc3ccc(C(F)(F)F)cc32)CC1` [Compound C] yielded a half-inhibitory concentration (IC50) of 14.1 µM. This compound also displayed an IC50 in data set [2] (HEPG2, 72 h) of 254 nM. Besides, half-maximal inhibition in data set [2] (Homo sapiens, HepG2, 72 h) (IC50) was put at 250 nM. Besides, the “induction of cell death in the different cancer cell lines” value in data set [3] was “particularly efficient (low IC50)”. Further, in data set [4], the “cell death induced / efficiency to kill pancreatic cancer cells, compared with Trifluoperazine” value is reported as “most efficient compound to kill the pancreatic cancer cells” and the “efficiency relative to Trifluoperazine (times more efficient)” value is on record as “around 10 times”. Further, the dissociation constant Kd in data set [5] was 2.1 µM. In addition, in data set [6] (setting [9]), the “size of the tumors” value is listed as “decreased progressively to almost disappear after 20 days of treatment” and the tumor growth result is “stopped the growth almost immediately”. Moreover, the neurological effect entry in data set [7] (treatment of xenografted mice, including chronic treatment with 10 mg/kg) was “did not show any appreciable neurological effect”.
In the case of `CCN1CCN(CCCN2c3ccccc3Sc3ccc(C(F)(F)F)cc32)CC1` [Compound A], in data set [4], the “cell death induced / efficiency to kill pancreatic cancer cells, compared with Trifluoperazine” value is “close to that induced by Trifluoperazine”. Also, the Kd in data set [5] stood at 11 µM.
As for `CN1CCN(CCCN2c3ccccc3Sc3ccc(C(F)(F)F)cc32)CC1` [Trifluoperazine, reference compound], the “dissociation constant between NUPR1 and Trifluoperazine” value in data set [8] was “low micromolar range”. The tumor growth entry in data set [6] (higher dose, data not shown) was “rapidly, and almost completely, stopped”. Also, in data set [6] (lowest dose, same period, data not shown), the “tumor volume increase compared to the control” value came to 50%. Also, the neurological effect entry in data set [7] (increasingly high doses, xenografted immunodeficient mice) is on record as “neurological effect on treated mice such has lethargy”.
As to `CCN1CCN(CCCN2c3ccccc3Sc3ccc(C(F)(F)F)cc32)CC1` [Compound B], in data set [5], the Kd is 7.1 µM.

The record behind these values is patent publication US20210137938A1, “NUPR1 INHIBITION FOR TREATING CANCER” (INSTITUT NATIONAL DE SANTE ET DE LA RECHERCHE MEDICALE …, priority 2018, published 2021).
